Earlier results as cited in patent US5648564A, “Process for the formation, isolation and purification of comestible xanthophyll crystals from plants” (Kemin Industries, Inc., priority 1995, dated 1997).

Tested on: not given
Conditions: consumption of lutein and zeaxanthin (reported jointly)

SMILES	reduction in age-related macular degeneration [%]
CC1=C[C@H](O)CC(C)(C)[C@H]1/C=C/C(C)=C/C=C/C(C)=C/C=C/C=C(C)/C=C/C=C(C)/C=C/C1=C(C)C[C@@H](O)CC1(C)C [lutein]	40
CC1=C(/C=C/C(C)=C/C=C/C(C)=C/C=C/C=C(C)/C=C/C=C(C)/C=C/C2=C(C)C[C@@H](O)CC2(C)C)C(C)(C)C[C@H](O)C1 [zeaxanthin]	40

Tested on: rat
Conditions: oral

SMILES	LD50 [mL/kg]
ClC(Cl)Cl [Chloroform]	2.18
CCOC(C)=O [Ethyl Acetate]	11.3
CC(O)CO (stereo not drawn) [Propylene Glycol, 1,2-propanediol]	25
c1ccncc1 [Pyridine]	1.58
